From patent publication US20070043034A1, “Chlorine Ion Uptake Modulators and Uses Thereof” (priority 2005, published 2007)

Tests used:
Na^+-K^+-ATPase = test: Activity-dependent change of Cli after postsynaptic action potential trains in CA1 pyramidal neurons; type: cell-based, rat; conditions: in the presence of DHO 10 μM; 20 Hz, 2.5 min trains; P=0.27
Description: The GABAB receptor antagonist CGP 55845A (1 μM) was included in the bath for most experiments. Bumetanide was stored as a 50 mM stock solution in ethanol at 4° C. and then diluted to 10 μM in ACSF. Dihydroouabain (10 μM) was diluted into ACSF and bath applied.
Action potentials in current-clamped neurons was invoked by injecting depolarizing current pulses (1.5 ms, 2 nA) at 20 Hz for 2.5 min.
Persistent increases in Cli and the GABA reversal potential have been observed following trains of action potentials. Action potential trains have long been known to cause long-lasting increases in the activity of Na^+—K^+-ATPase and corresponding changes in RMP. If NKCCl-mediated transport were thermodynamically limited, then the changes in ECl observed following action potential trains could be due to altered Na^+ and K^+ transmembrane gradients. Without being bound by any theory, it is believed that of the two cations, Nai would be most labile and would have the most influence on the Cli at which NKCCl-mediated transport reached equilibrium. Steady-state ECl and Cl^− transport kinetics were measured before and after a 20 Hz, 2.5 minute train of action potentials. […]
FIGS. 10A-10D show activity-dependent increases in Cli. FIG. 10A is a graph showing that following a train of action potentials in the recorded cell (20 Hz, 2.5 min), Cli reached a new steady state. […]

KA-induced rat seizures = test: Kainic acid (KA) induced seizures in rat pups, EEG recording in vivo; conditions: KA 2 mg/kg s.c.
Text: Kainic Acid (KA) is a commonly used agent for creating an in vivo neonatal-like seizure model in rats for study. It is believed that this seizure model closely parallels human neonatal seizure disorders. KA, a glutamate receptor agonist, was used to induce neonatal-like seizures in postnatal (P) 7-12 day male Wistar rats. The rats were equipped with electrodes including recording and reference electrodes by standard means. There are many known methods for measuring parameters of seizures, in this example electrical signals were digitized using an analogue-to-digital converter for example a DigiData 1322A (Axon Instuments USA). The sampling interval can vary depending on the desired target interval. In this example, the sampling interval per signal was 200 […]s (5 kHz). For data analysis, several computer programs exist for capturing and analyzing these seizure parameters such as Clamp 9.2 (Axon Instruments, USA) and Origon 5.0 (Microcal Software, USA) used here. Interictal spikes were determined by typical means utilizing band-pass filtered raw data.
Many known methods exist for analyzing the power levels of different frequency components in a signal such as a signal recorded from a seizure episode. For example, power spectrum analysis can be performed after applying a Hamming window function. Unless otherwise indicated, power was calculated in 1-2 min time windows by integrating the root mean square value of the signal in frequency bands from 1 to 100 Hz (EEC band) and from 200 to 500 Hz (fast ripple band).
Pharmaceutical compositions of the present invention can be administered to seizure-induced rats to test the seizure modulatory properties of the pharmaceutical composition. In one exemplary method, the inhibition of NKCCl and its affect on seizures in rat pups was studied. Two days after implantation of recording electrodes, six P9-P10 rats received subcutaneous injection of KA (2 mg/kg) and six P9-10 control rats received subcutaneous 0.9% sodium chloride saline injections. 10-20 minutes after KA injection regular pattern of behavioral signs started, involving scratching-like movements of the hindpaws, loss of balance and turning on the side. Recurrent interictal and ictal electroencephalographic patterns occurred 20-80 minutes (61.2±10.4 min; mean±se) after KA injection in all rats from this experimental group (FIG. 4B). […] Interictal spikes usually occurred synchronously in the left and right hemispheres. Frequency of the interictal spikes was 1.43±0.06 Hz (n=23 seizures in 6 rats). Before transition to ictal patterns, interictal spikes were usually followed by fast ripple (100-500 Hz) and gamma-frequency oscillations (20-50 Hz). Tonic-clonic seizures were the most common type of seizures induced by KA in P9-10 rats. Ictal-tonic phase lasted 12.6±1.4 s (16 seizures in 5 rats). Population spikes of 18.7±1.2 Hz were characteristic of the tonic phase of KA-induced seizures (FIG. 4C). Tonic discharges were followed by clonic bursts (FIG. 4C). Large amplitude population spikes followed by 100-200 Hz ripples and 200-1200 ms gamma frequency after discharges characterized the clonic bursts. The mean duration of the clonic phase was 36.4±5 s (25 seizures in 6 rats). The ictal patterns were followed by postictal depression (FIG. 4 B-4C). During ictal EEG activity, motor activity consisted of scratching, jerky movements, turning on the side or on the back and frequent tail shaking. Five to ten recurrent seizures with an average interval 379±24.5 s were followed by periodic epileptiform discharges (PLEDs) (FIG. 4D).
In one exemplary experiment, a pharmaceutical composition of the present invention comprising bumetanide was compared to phenobarbital for effects on KA-induced rat seizures. Two days after implantation of recording electrodes, twenty-two P9-12 age-matched rats received subcutaneous injection with KA (2 mg/kg). […]

[1] = system: low-Mg^2+ induced recurrent seizures in the intact hippocampus; test: Low-Mg2+ ACSF induced recurrent seizures in the intact hippocampus in vitro; type: cell-based, rat; conditions: phenobarbital 100 μM
Text: High expression level of the Na^+ K^+-2Cl^− (NKCCl) co-transporter in immature neurons causes the accumulation of chloride ions and a depolarized Cl^− equilibrium potential (ECl). This is linked to a higher seizure propensity and poor EEG response in neonates to the barbiturates and benzodiazepines, conventional anticonvulsant drugs that target Cl^−-permeable GABAA-receptor (GABAA-R) operated channels. […] Recurrent ictal-like seizures were induced by low-Mg^+ ACSF in intact hippocampal preparations in vitro. […] Bumetanide decreased both seizure frequency and seizure power.
FIGS. 11A-11C are graphs of low-Mg^2+πinduced recurrent seizures in the intact hippocampus in vitro. […] First and last seizures from 5 hour recording are shown on an expanded time scale. Right, corresponding power spectra in the 0.1-1000 Hz frequency band. […] Summary data are taken from ten hippocampi. […] Power of the first seizure in each recording was considered as 100%. Data are taken from 18 recordings in 10 preparations from P4-6 rats.
FIGS. 12A-12C are graphs showing low efficiency of phenobarbital in neonatal seizures. FIG. 12A is a graph showing extracellular field potential recording in the CA3 pyramidal cell layer in the intact hippocampus of a P5 rat. Continuous application of low-Mg^2+ ACSF induced recurrent tonic-clonic seizures. […] The right portion corresponds to power spectra in the 0.1-1000 Hz frequency range. […] Data are from ten experiments that were combined. FIG. 12C is a graph showing power of recurrent seizures before, during and after phenobarbital application. Power of the first seizure in each recording was considered as 100%. Seizures were not depressed by phenobarbital indicating its low efficiency.
FIGS. 13A-13C are graphs showing that alteration of Cl^−-transport by bumetanide enhanced efficacy of phenobarbital in neonatal seizures. FIG. 13A is a graph of extracellular field potential recording in the CA3 pyramidal cell layer in the intact hippocampus of a P5 rat. Application of low-Mg^2+ ACSF induced recurrent seizures. […] These are shown on an expanded time scale. The right portion of FIG. 13A is a power spectra of extracellular field potential activity before and during application of drugs. FIG. 13B is a graph showing inter-seizure intervals before, during and after application of drugs. In 75% of experiments seizures were abolished (ISI>120 min) by simultaneous application of phenobarbital and bumetanide. FIG. 13C is a graph showing power of recurrent seizures before, during and after simultaneous application of phenobarbital and bumetanide. Power of the first seizure in each recording was considered as 100%. Seizures were depressed by combination of drugs.
FIGS. 14A and 14B are graphs showing alteration of Cl^−-transport for early-life seizure therapy. […]

[2] = P9-12 rats, phenobarbital 25 mg/kg or bumetanide 0.1-0.2 mg/kg i.p.

Row | Structure (SMILES) | effect of action potential trains on Cli (Na^+-K^+-ATPase) | animals with recurrent ictal-clonic activity / EEG clonic seizures (KA-induced rat seizures; P9-12 rats, drug i.p. 10 min after KA (phenobarbital 25 mg/kg; bumetanide 0.1-0.2 mg/kg), 6 rats per group) [%] | frequency of the ictal-tonic discharges (KA-induced rat seizures; P9-12 rats, phenobarbital 25 mg/kg i.p.) [Hz] | duration of ictal-clonic phase (KA-induced rat seizures; [2]) [s] | duration of ictal-tonic phase (KA-induced rat seizures; [2]) [s] | frequency of interictal spikes (KA-induced rat seizures; [2]) [Hz] | mean duration of single ictal episode (seizure including interictal and ictal phases) (KA-induced rat seizures; [2]) [s] | mean interval between seizures (KA-induced rat seizures; [2]) [s] | rats with ictal-tonic pattern / tonic-clonic seizures (KA-induced rat seizures; [2]) [%] | increase of power of EEG activity in the 20 minute window following seizure onset (KA-induced rat seizures; compared to pre-ictal baseline, phenobarbital 25 mg/kg or bumetanide 0.1-0.2 mg/kg i.p., saline control 444.7±136.3%) [%] | experiments in which seizure frequency was significantly reduced [1] [%] | seizure power ([1]; bumetanide 10 μM or both, 120 min application, intact hippocampus of P4-6 rats)
1 | C[C@@H]1O[C@@H](O[C@H]2C[C@@H](O)[C@]3(CO)[C@H]4[C@H](O)C[C@]5(C)[C@@H]([C@@H]6COC(=O)C6)CC[C@]5(O)[C@@H]4CC[C@]3(O)C2)[C@H](O)[C@H](O)[C@H]1O [DHO, dihydroouabain] | no effect | – | – | – | – | – | – | – | – | – | – | –
2 | CCC1(c2ccccc2)C(=O)NC(=O)NC1=O [phenobarbital] | – | 100 | 14±3 | 12 ± 1.1 | 5.2 ± 1.4 | 1.56 ± 0.08 | 27.4 ± 2.6 | 241.3 ± 45.8 | 33.3 | 248±40.8 | 70 | no significant effect
